Test results: patent US20080306076A1, “MODULATION OF CHEMOSENSORY RECEPTORS AND LIGANDS ASSOCIATED THEREWITH” (SENOMYX, INC., priority 2007, published 2008)
Changes are numbered by the printed parent chain.

Key:
hT1R1 S172A = molecular target: T1, hT1R1 S172A (Homo sapiens, UniProt Q7RTX1, S172A); assay: Mutagenesis study, hT1R1 mutant S172A; assay type: cell-based; settings: S172 mutant, FIG. 11
T1 construct: expressed in transfected cells; host or cells: HEK293, transient transfection
T1 sequence (Q7RTX1 21-841 S172A): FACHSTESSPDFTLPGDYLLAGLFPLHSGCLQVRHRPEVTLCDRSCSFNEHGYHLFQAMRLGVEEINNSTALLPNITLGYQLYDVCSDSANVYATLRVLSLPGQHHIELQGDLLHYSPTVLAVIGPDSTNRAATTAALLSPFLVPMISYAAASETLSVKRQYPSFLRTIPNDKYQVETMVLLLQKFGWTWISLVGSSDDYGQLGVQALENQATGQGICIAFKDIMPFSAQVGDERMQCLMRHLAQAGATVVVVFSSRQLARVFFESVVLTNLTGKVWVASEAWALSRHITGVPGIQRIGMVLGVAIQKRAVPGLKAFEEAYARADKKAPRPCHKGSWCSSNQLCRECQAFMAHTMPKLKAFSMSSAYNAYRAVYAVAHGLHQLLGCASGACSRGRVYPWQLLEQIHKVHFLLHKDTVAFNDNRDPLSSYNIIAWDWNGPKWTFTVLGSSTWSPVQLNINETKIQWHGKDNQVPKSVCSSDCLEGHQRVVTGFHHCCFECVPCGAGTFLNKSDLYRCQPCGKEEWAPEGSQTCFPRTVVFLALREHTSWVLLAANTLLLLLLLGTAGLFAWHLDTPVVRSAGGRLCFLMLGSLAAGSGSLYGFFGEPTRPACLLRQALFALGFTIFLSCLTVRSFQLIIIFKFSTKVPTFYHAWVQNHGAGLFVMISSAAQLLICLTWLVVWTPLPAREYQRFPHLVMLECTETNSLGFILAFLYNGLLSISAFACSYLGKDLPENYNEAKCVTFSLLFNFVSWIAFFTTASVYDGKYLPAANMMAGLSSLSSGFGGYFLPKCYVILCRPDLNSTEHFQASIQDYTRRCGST
T1 sequence (Q923K1 21-858 partner): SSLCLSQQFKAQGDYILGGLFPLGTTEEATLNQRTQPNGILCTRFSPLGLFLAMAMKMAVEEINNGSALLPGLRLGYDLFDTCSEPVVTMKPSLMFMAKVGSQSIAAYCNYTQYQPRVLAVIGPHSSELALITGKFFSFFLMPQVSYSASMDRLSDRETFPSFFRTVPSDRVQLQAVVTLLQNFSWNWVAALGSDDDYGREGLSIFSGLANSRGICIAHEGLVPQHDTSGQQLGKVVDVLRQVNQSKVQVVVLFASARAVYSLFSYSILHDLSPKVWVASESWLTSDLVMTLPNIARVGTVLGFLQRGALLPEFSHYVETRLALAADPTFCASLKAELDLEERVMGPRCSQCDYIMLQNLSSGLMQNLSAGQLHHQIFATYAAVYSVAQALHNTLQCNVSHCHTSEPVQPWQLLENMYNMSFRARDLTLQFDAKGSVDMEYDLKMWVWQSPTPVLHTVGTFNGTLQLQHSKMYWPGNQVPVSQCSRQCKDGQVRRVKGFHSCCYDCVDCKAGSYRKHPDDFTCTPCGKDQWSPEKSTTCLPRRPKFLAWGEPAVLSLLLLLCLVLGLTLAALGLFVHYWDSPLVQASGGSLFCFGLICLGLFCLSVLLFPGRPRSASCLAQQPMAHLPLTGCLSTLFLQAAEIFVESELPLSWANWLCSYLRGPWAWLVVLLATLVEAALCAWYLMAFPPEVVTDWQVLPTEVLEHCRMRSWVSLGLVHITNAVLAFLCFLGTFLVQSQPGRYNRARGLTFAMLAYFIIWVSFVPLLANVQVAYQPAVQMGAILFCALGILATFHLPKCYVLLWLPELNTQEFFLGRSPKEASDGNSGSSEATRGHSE
Excerpt: (§1) In order to further define the interaction sites of umami stimuli, we performed site-directed mutagenesis on human T1R1 VFT. The mutagenesis was done using the routine PCR-based method. […] were transiently transfected into HEK293 cell together with the rat T1R3 wild type cDNA, and the transfected cells were characterized using an automated FLIPR machine or a calcium imaging system as described in our previous patent applications.

hT1R1 Y220A = molecular target: T2, hT1R1 Y220A (Homo sapiens, UniProt Q7RTX1, Y220A); assay: Mutagenesis study, hT1R1 mutant Y220A; assay type: cell-based; settings: Y220 mutant, FIG. 11
T2 construct: expressed in transfected cells; host or cells: HEK293, transient transfection
T2 sequence (Q7RTX1 21-841 Y220A): T1 sequence (Q7RTX1 21-841 S172A) with A152S, Y200A
T2 sequence (Q923K1 21-858 partner): T1 sequence (Q923K1 21-858 partner)
Excerpt: as §1

N[C@@H](CCC(=O)O)C(=O)O [L-Glu, L-glutamate]
activity against L-Glu (hT1R1 S172A): significant reduced activity | activity against L-Glu (hT1R1 Y220A): significant reduced activity
